Assay results: PubChem BioAssay (NCI)
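Interpolation was linear, between the two tested concentrations surrounding the appropriate level; five concentrations were tested over 48 hours in 96-well plates. At the GI50, growth is halved. TGI denotes the concentration required for complete inhibition of growth.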

Experiments:
Assay in all cases: NCI anticancer screen, dose series, 48 h
786-0 renal = test system: 786-0 renal
A498 renal = test system: A498 renal
A549 NSCLC = test system: A549 NSCLC
ACHN renal = test system: ACHN renal
BT-549 breast = test system: BT-549 breast
CAKI-1 renal = test system: CAKI-1 renal
CCRF-CEM leukemia = test system: CCRF-CEM leukemia
COLO 205 colon = test system: COLO 205 colon
DU-145 prostate = test system: DU-145 prostate
EKVX NSCLC = test system: EKVX NSCLC
HCC-2998 colon = test system: HCC-2998 colon
HCT-116 colon = test system: HCT-116 colon
HCT-15 colon = test system: HCT-15 colon
HL-60(TB) leukemia = test system: HL-60(TB) leukemia
HOP-62 NSCLC = test system: HOP-62 NSCLC
HOP-92 NSCLC = test system: HOP-92 NSCLC
HS 578T breast = test system: HS 578T breast
HT29 colon = test system: HT29 colon
IGROV1 ovarian = test system: IGROV1 ovarian
KM12 colon = test system: KM12 colon
LOX IMVI melanoma = test system: LOX IMVI melanoma
M14 melanoma = test system: M14 melanoma
MALME-3M melanoma = test system: MALME-3M melanoma
MCF7 breast = test system: MCF7 breast
MDA-MB-231 breast = test system: MDA-MB-231 breast
MDA-MB-435 = test system: MDA-MB-435
MOLT-4 leukemia = test system: MOLT-4 leukemia
NCI-H226 lung = test system: NCI-H226 lung
NCI-H23 lung = test system: NCI-H23 lung
NCI-H460 lung = test system: NCI-H460 lung
NCI-H522 lung = test system: NCI-H522 lung
OVCAR-3 ovarian = test system: OVCAR-3 ovarian
OVCAR-4 ovarian = test system: OVCAR-4 ovarian
OVCAR-5 ovarian = test system: OVCAR-5 ovarian
OVCAR-8 ovarian = test system: OVCAR-8 ovarian
PC-3 prostate = test system: PC-3 prostate
RPMI-8226 leukemia = test system: RPMI-8226 leukemia
RXF 393 renal = test system: RXF 393 renal
SF-268 CNS = test system: SF-268 CNS
SF-295 CNS = test system: SF-295 CNS
SF-539 CNS = test system: SF-539 CNS
SK-MEL-2 melanoma = test system: SK-MEL-2 melanoma
SK-MEL-5 melanoma = test system: SK-MEL-5 melanoma
SK-OV-3 ovarian = test system: SK-OV-3 ovarian
SN12C renal = test system: SN12C renal
SNB-19 CNS = test system: SNB-19 CNS
SNB-75 CNS = test system: SNB-75 CNS
SR leukemia = test system: SR leukemia
SW-620 colon = test system: SW-620 colon
T-47D breast = test system: T-47D breast
TK-10 renal = test system: TK-10 renal
U251 CNS = test system: U251 CNS
UACC-257 melanoma = test system: UACC-257 melanoma
UACC-62 melanoma = test system: UACC-62 melanoma
UO-31 renal = test system: UO-31 renal
NCI/ADR-RES ovarian = test system: NCI/ADR-RES ovarian

SMILES: COc1ccc(NC(=O)c2sc3nc(C)c(C(=O)/C=C/c4ccccc4)cc3c2N)cc1
- GI50 (786-0 renal): 821 nM
- TGI (786-0 renal): 1670 nM
- GI50 (A498 renal): 890 nM
- TGI (A498 renal): 3220 nM
- GI50 (A549 NSCLC): 749 nM
- TGI (A549 NSCLC): 2130 nM
- GI50 (ACHN renal): 888 nM
- TGI (ACHN renal): 1740 nM
- GI50 (BT-549 breast): 938 nM
- TGI (BT-549 breast): 2230 nM
- GI50 (CAKI-1 renal): 953 nM
- TGI (CAKI-1 renal): 1820 nM
- GI50 (CCRF-CEM leukemia): 1260 nM
- TGI (CCRF-CEM leukemia): 9940 nM
- GI50 (COLO 205 colon): 1430 nM
- TGI (COLO 205 colon): 5180 nM
- GI50 (DU-145 prostate): 1300 nM
- TGI (DU-145 prostate): 3720 nM
- GI50 (EKVX NSCLC): 1620 nM
- TGI (EKVX NSCLC): 8850 nM
- GI50 (HCC-2998 colon): 901 nM
- TGI (HCC-2998 colon): 1760 nM
- GI50 (HCT-116 colon): 849 nM
- TGI (HCT-116 colon): 1780 nM
- GI50 (HCT-15 colon): 892 nM
- TGI (HCT-15 colon): 2070 nM
- GI50 (HL-60(TB) leukemia): 971 nM
- TGI (HL-60(TB) leukemia): 2500 nM
- GI50 (HOP-62 NSCLC): 1260 nM
- TGI (HOP-62 NSCLC): 3160 nM
- GI50 (HOP-92 NSCLC): 1390 nM
- TGI (HOP-92 NSCLC): 6650 nM
- GI50 (HS 578T breast): 2050 nM
- TGI (HS 578T breast): > 50000 nM
- GI50 (HT29 colon): 883 nM
- TGI (HT29 colon): 1940 nM
- GI50 (IGROV1 ovarian): 859 nM
- TGI (IGROV1 ovarian): 2090 nM
- GI50 (KM12 colon): 897 nM
- TGI (KM12 colon): 1870 nM
- GI50 (LOX IMVI melanoma): 863 nM
- TGI (LOX IMVI melanoma): 1610 nM
- GI50 (M14 melanoma): 1750 nM
- TGI (M14 melanoma): 10300 nM
- GI50 (MALME-3M melanoma): 1930 nM
- TGI (MALME-3M melanoma): 21600 nM
- GI50 (MCF7 breast): 815 nM
- TGI (MCF7 breast): 6000 nM
- GI50 (MDA-MB-231 breast): 1760 nM
- TGI (MDA-MB-231 breast): 12600 nM
- GI50 (MDA-MB-435): 1040 nM
- TGI (MDA-MB-435): 2960 nM
- GI50 (MOLT-4 leukemia): 1430 nM
- TGI (MOLT-4 leukemia): > 50000 nM
- GI50 (NCI-H226 lung): 1110 nM
- TGI (NCI-H226 lung): 2870 nM
- GI50 (NCI-H23 lung): 1570 nM
- TGI (NCI-H23 lung): 6090 nM
- GI50 (NCI-H460 lung): 931 nM
- TGI (NCI-H460 lung): 2080 nM
- GI50 (NCI-H522 lung): 943 nM
- TGI (NCI-H522 lung): 2420 nM
- GI50 (OVCAR-3 ovarian): 1090 nM
- TGI (OVCAR-3 ovarian): 2730 nM
- GI50 (OVCAR-4 ovarian): 4430 nM
- TGI (OVCAR-4 ovarian): > 50000 nM
- GI50 (OVCAR-5 ovarian): 1110 nM
- TGI (OVCAR-5 ovarian): 3260 nM
- GI50 (OVCAR-8 ovarian): 1420 nM
- TGI (OVCAR-8 ovarian): 5220 nM
- GI50 (PC-3 prostate): 1250 nM
- TGI (PC-3 prostate): 3890 nM
- GI50 (RPMI-8226 leukemia): 860 nM
- TGI (RPMI-8226 leukemia): 2740 nM
- GI50 (RXF 393 renal): 820 nM
- TGI (RXF 393 renal): 1620 nM
- GI50 (SF-268 CNS): 1570 nM
- TGI (SF-268 CNS): 5930 nM
- GI50 (SF-295 CNS): 1870 nM
- TGI (SF-295 CNS): 9200 nM
- GI50 (SF-539 CNS): 951 nM
- TGI (SF-539 CNS): 1840 nM
- GI50 (SK-MEL-2 melanoma): 3780 nM
- TGI (SK-MEL-2 melanoma): 17500 nM
- GI50 (SK-MEL-5 melanoma): 2030 nM
- TGI (SK-MEL-5 melanoma): 7220 nM
- GI50 (SK-OV-3 ovarian): 3330 nM
- TGI (SK-OV-3 ovarian): 12700 nM
- GI50 (SN12C renal): 1100 nM
- TGI (SN12C renal): 2850 nM
- GI50 (SNB-19 CNS): 1300 nM
- TGI (SNB-19 CNS): 4020 nM
- GI50 (SNB-75 CNS): 1220 nM
- TGI (SNB-75 CNS): 3530 nM
- GI50 (SR leukemia): 1070 nM
- TGI (SR leukemia): 4000 nM
- GI50 (SW-620 colon): 966 nM
- TGI (SW-620 colon): 2240 nM
- GI50 (T-47D breast): 1250 nM
- TGI (T-47D breast): 4370 nM
- GI50 (TK-10 renal): 1350 nM
- TGI (TK-10 renal): 3590 nM
- GI50 (U251 CNS): 889 nM
- TGI (U251 CNS): 1680 nM
- GI50 (UACC-257 melanoma): 1190 nM
- TGI (UACC-257 melanoma): 3560 nM
- GI50 (UACC-62 melanoma): 934 nM
- TGI (UACC-62 melanoma): 1960 nM
- GI50 (UO-31 renal): 748 nM
- TGI (UO-31 renal): 1440 nM

SMILES: Cc1cc(C)c(S(=O)(=O)N2CCN(c3cc4c(cc3F)c(=O)c(C(=O)O)cn4C3CC3)CC2)c(C)c1
- GI50 (786-0 renal): 4080 nM
- TGI (786-0 renal): > 100000 nM
- GI50 (A498 renal): 2370 nM
- TGI (A498 renal): > 100000 nM
- GI50 (A549 NSCLC): 2230 nM
- TGI (A549 NSCLC): > 100000 nM
- GI50 (ACHN renal): 2460 nM
- TGI (ACHN renal): > 100000 nM
- GI50 (BT-549 breast): 3340 nM
- TGI (BT-549 breast): > 100000 nM
- GI50 (CCRF-CEM leukemia): 2800 nM
- TGI (CCRF-CEM leukemia): > 100000 nM
- GI50 (DU-145 prostate): 3400 nM
- TGI (DU-145 prostate): > 100000 nM
- GI50 (HCC-2998 colon): 5370 nM
- TGI (HCC-2998 colon): > 100000 nM
- GI50 (HCT-116 colon): 2980 nM
- TGI (HCT-116 colon): > 100000 nM
- GI50 (HCT-15 colon): 2550 nM
- TGI (HCT-15 colon): > 100000 nM
- GI50 (HOP-62 NSCLC): 3650 nM
- TGI (HOP-62 NSCLC): > 100000 nM
- GI50 (HS 578T breast): 2400 nM
- TGI (HS 578T breast): 7580 nM
- GI50 (KM12 colon): 3380 nM
- TGI (KM12 colon): > 100000 nM
- GI50 (M14 melanoma): 4690 nM
- TGI (M14 melanoma): > 100000 nM
- GI50 (MCF7 breast): 2590 nM
- TGI (MCF7 breast): > 100000 nM
- GI50 (NCI-H23 lung): 3410 nM
- TGI (NCI-H23 lung): > 100000 nM
- GI50 (NCI-H460 lung): 3040 nM
- TGI (NCI-H460 lung): > 100000 nM
- GI50 (NCI-H522 lung): 2800 nM
- TGI (NCI-H522 lung): > 100000 nM
- GI50 (NCI/ADR-RES ovarian): 3290 nM
- TGI (NCI/ADR-RES ovarian): > 100000 nM
- GI50 (OVCAR-4 ovarian): 2370 nM
- TGI (OVCAR-4 ovarian): > 100000 nM
- GI50 (OVCAR-8 ovarian): 2870 nM
- TGI (OVCAR-8 ovarian): > 100000 nM
- GI50 (RPMI-8226 leukemia): 2340 nM
- TGI (RPMI-8226 leukemia): 6830 nM
- GI50 (SF-268 CNS): 3960 nM
- TGI (SF-268 CNS): > 100000 nM
- GI50 (SF-539 CNS): 3140 nM
- TGI (SF-539 CNS): > 100000 nM
- GI50 (SK-MEL-5 melanoma): 3030 nM
- TGI (SK-MEL-5 melanoma): > 100000 nM
- GI50 (SK-OV-3 ovarian): 3020 nM
- TGI (SK-OV-3 ovarian): > 100000 nM
- GI50 (SN12C renal): 2610 nM
- TGI (SN12C renal): > 100000 nM
- GI50 (SNB-19 CNS): 2560 nM
- TGI (SNB-19 CNS): > 100000 nM
- GI50 (SW-620 colon): 3400 nM
- TGI (SW-620 colon): > 100000 nM
- GI50 (T-47D breast): 4810 nM
- TGI (T-47D breast): > 100000 nM
- GI50 (TK-10 renal): 4570 nM
- TGI (TK-10 renal): > 100000 nM
- GI50 (U251 CNS): 2890 nM
- TGI (U251 CNS): > 100000 nM
- GI50 (UACC-257 melanoma): > 100000 nM
- TGI (UACC-257 melanoma): > 100000 nM
- GI50 (UACC-62 melanoma): 2430 nM
- TGI (UACC-62 melanoma): > 100000 nM
